Experimental data as given in PubChem BioAssay (NCI).
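Five concentrations, 48 hours, 96-well plates. At the GI50, growth is halved. TGI marks complete inhibition of growth.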

Columns and labels:
Experiment in all cases: NCI tumour cell line growth inhibition, 48 h
[1] = system: RPMI-8226 leukemia
[2] = system: HCT-15 colon
[3] = system: SK-MEL-28 melanoma
[4] = system: SN12C renal
[5] = system: CCRF-CEM leukemia
[6] = system: U251 CNS
[7] = system: OVCAR-3 ovarian
[8] = system: KM12 colon
[9] = system: UACC-62 melanoma
[10] = system: HS 578T breast
[11] = system: MCF7 breast
[12] = system: CAKI-1 renal
[13] = system: NCI-H460 lung
[14] = system: MALME-3M melanoma
[15] = system: DU-145 prostate
[16] = system: T-47D breast
[17] = system: SF-295 CNS
[18] = system: TK-10 renal
[19] = system: SF-539 CNS
[20] = system: MDA-MB-231 breast
[21] = system: SR leukemia
[22] = system: EKVX NSCLC
[23] = system: SK-MEL-2 melanoma
[24] = system: NCI/ADR-RES ovarian
[25] = system: SF-268 CNS
[26] = system: HL-60(TB) leukemia
[27] = system: SNB-75 CNS
[28] = system: 786-0 renal
[29] = system: NCI-H522 lung

C#CCNCCCN1C(=O)c2ccc3c4c(ccc(c24)C1=O)C(=O)N(CCCNCC#C)C3=O
GI50 [1]: 404 nM
TGI [1]: 4180 nM
GI50 [2]: 206 nM
TGI [2]: 809 nM
GI50 [3]: 613 nM
TGI [3]: 2160 nM
GI50 [4]: 214 nM
TGI [4]: 949 nM
GI50 [5]: 295 nM
TGI [5]: 2890 nM
GI50 [6]: 223 nM
TGI [6]: 1020 nM
GI50 [7]: 277 nM
TGI [7]: 957 nM
GI50 [8]: 284 nM
TGI [8]: 1330 nM
GI50 [9]: 384 nM
TGI [9]: 1070 nM
GI50 [10]: 919 nM
TGI [10]: 4760 nM
GI50 [11]: 132 nM
TGI [11]: 328 nM
GI50 [12]: 237 nM
TGI [12]: 955 nM
GI50 [13]: 101 nM
TGI [13]: 363 nM
GI50 [14]: 158 nM
TGI [14]: 373 nM
GI50 [15]: 219 nM
TGI [15]: 600 nM
GI50 [16]: 1020 nM
TGI [16]: 3900 nM
GI50 [17]: 119 nM
TGI [17]: 514 nM
GI50 [18]: 689 nM
TGI [18]: 6880 nM
GI50 [19]: 470 nM
TGI [19]: 1750 nM
GI50 [20]: 670 nM
TGI [20]: 5920 nM
GI50 [21]: 219 nM
TGI [21]: 1040 nM
GI50 [22]: 302 nM
TGI [22]: 1130 nM
GI50 [23]: 244 nM
TGI [23]: 729 nM
GI50 [24]: 467 nM
TGI [24]: 3810 nM
GI50 [25]: 404 nM
TGI [25]: 3050 nM
GI50 [26]: 305 nM
TGI [26]: 988 nM
GI50 [27]: 451 nM
TGI [27]: 1690 nM
GI50 [28]: 778 nM
TGI [28]: 5360 nM
GI50 [29]: 251 nM
TGI [29]: 841 nM
